Laboratory results from patent US20130149701A1, “METHODS OF IDENTIFYING THERAPEUTIC AGENTS FOR TREATING PERSISTER AND BACTERIAL INFECTION” (priority 2010, published 2013).
In brackets after ≈: the same amount, converted by molar mass. Entries after “also recorded” stand apart in the source; their conditions may differ.

Legend:
[1] = target: T1, Endonuclease IV (Rv0670) (Mycobacterium tuberculosis, UniProt P9WQ13); format: biochemical, M. tuberculosis
[2] = target: T1, Endonuclease IV (Rv0670); assay: Endonuclease IV (Rv0670) activity on oligonucleotides with AP, U or H lesions; format: biochemical, M. tuberculosis; details: oligos with AP, U or H lesion; POA 2, 4, 8, 16, 25 and 34 mM; INH and PZA 25 mM
[3] = target: T2, wild type M. tuberculosis RpsA binding to tmRNA (Mycobacterium tuberculosis, UniProt P9WH43); details: for effect on tmRNA binding to wild type RpsA: FIG. 5A, POA Lanes 2-7, PZA (200 g/ml), INH (1 g/ml)
T2 sequence (P9WH43 1-481): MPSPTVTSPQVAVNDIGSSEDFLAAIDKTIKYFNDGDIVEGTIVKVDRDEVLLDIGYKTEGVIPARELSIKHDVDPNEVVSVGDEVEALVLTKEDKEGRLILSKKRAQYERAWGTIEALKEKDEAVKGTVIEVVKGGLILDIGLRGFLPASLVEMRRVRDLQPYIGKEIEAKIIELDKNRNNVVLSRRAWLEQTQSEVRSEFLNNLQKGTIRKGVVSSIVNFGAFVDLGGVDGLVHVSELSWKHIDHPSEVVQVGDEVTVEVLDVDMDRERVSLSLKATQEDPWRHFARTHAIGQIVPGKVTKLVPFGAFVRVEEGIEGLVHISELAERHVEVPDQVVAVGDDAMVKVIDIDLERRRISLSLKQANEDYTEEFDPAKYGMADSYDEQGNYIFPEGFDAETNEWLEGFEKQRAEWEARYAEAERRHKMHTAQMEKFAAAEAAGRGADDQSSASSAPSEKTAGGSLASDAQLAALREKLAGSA

[4] = test system: M. tuberculosis cell lysates; format: binding
[5] = target: T3, M. smegmatis RpsA (Mycolicibacterium smegmatis, UniProt A0QYY6); format: binding; details: 10 μM RpsA titrated with 100 μM POA
T3 construct: made in house
T3 sequence (A0QYY6 1-479): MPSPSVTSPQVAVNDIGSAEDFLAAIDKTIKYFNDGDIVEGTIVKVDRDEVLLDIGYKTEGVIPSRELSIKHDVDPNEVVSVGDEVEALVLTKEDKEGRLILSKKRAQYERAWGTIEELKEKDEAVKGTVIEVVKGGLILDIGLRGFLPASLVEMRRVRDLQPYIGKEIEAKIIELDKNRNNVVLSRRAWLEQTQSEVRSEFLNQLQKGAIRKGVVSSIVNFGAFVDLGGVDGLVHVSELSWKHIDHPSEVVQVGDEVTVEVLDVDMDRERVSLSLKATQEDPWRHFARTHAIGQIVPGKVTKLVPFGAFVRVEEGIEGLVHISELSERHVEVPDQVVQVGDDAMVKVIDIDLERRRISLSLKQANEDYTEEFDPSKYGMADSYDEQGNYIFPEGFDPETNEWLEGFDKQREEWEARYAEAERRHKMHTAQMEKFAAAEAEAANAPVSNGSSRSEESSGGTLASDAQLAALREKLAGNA

[6] = target: M. tuberculosis H37Rv RpsA (WT) (Mycobacterium tuberculosis, UniProt P9WH43); assay: biochemical; format: binding
[7] = target: ribosome from M. smegmatis (trans-translation) (Mycolicibacterium smegmatis, UniProt A0QYY6); format: biochemical
[8] = target: M. tuberculosis ribosome (canonical translation) (Mycobacterium tuberculosis, UniProt P9WH43); format: biochemical
[9] = target: M. tuberculosis ribosome, tmRNA and SmpB (trans-translation) (Mycobacterium tuberculosis, UniProt P9WH43); format: biochemical
[10] = test system: M. tuberculosis; assay: MIC of POA as stated in the text; format: cell-based; details: Mycobacterium tuberculosis, read-out: MIC concentration
[11] = target: ribosome from E. coli (trans-translation) (Escherichia coli, UniProt P0AG67); format: biochemical
[12] = test system: Mtb clinical isolate DHM444 / H37Rv; assay: microbe, parasite or virus in culture; format: cell-based, M. tuberculosis; details: Mycobacterium tuberculosis, PZA, sensitive control strain H37Rv

T1 sequence (P9WQ13 whole entry): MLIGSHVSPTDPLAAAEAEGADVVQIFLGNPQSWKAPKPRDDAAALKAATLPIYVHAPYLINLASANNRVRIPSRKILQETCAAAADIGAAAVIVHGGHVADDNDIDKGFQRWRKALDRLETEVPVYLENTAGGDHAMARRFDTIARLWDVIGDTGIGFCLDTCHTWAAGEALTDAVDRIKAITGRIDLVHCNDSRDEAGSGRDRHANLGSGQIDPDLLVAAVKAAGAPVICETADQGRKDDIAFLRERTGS

SMILES: NNC(=O)c1ccncc1 [INH, isoniazid]
- inhibition of Rv0670 (Endo IV/V) activity [1]: no inhibition and not
- inhibition of Rv0670 endonuclease activity [2]: did not inhibit
- effect on tmRNA binding to wild type RpsA [3]: no effect; also recorded: not affected

SMILES: O=C(O)c1cnccn1 [POA, 2-pyrazinecarboxylic acid]
- inhibition of Rv0670 (Endo IV/V) activity [1]: inhibited the activity of Rv0670 (Endo IV/V) completely
- reversibility of Endo IV/V inhibition ([1]; dilution or dialysis): irreversibly
- proteins bound to POA identified by Mass Spectrometry ([4]; Examples 8-16, columns with 5-hydroxyl- and 6-hydroxyl-2-pyrazinecarboxylic acid): 9 proteins
- proteins that bound to POA ([4]; M. tuberculosis cell lysates, column with 5-hydroxyl-2-pyrazinecarboxylic acid, FIG. 1): several proteins
- major POA binding protein ([4]; POA-linked column, mass spectrometry): RpsA
- binding to M. smegmatis RpsA (ITC) [5]: only weakly; also recorded: only very weakly
- inhibition of Rv0670 endonuclease activity [2]: inhibited Rv0670 activity specifically in a dose dependent manner; also recorded: specific inhibition
- binding to wild type RpsA (ITC) [6]: bound; also recorded: specifically bind
- ΔS (ITC) ([6]; pH 7.4): 27.6 cal·mol^−1·K^−1
- Kd ([6]; read-out: K (binding constant, ITC)): 133 nM
- inhibition of trans-translation [7]: nor did it inhibit; also recorded: did not inhibit
- effect on tmRNA binding to wild type RpsA [3]: Concentration-dependent inhibition
- inhibition of wild type Mtb RpsA binding to tmRNA ([3]; POA at its MIC concentration of 50 μg/ml): inhibited
- effect on conventional protein synthesis (canonical translation) [8]: no effect; also recorded: did not inhibit
- effect on translation of the normal DHFR gene [8]: did not affect
- concentration inhibiting trans-translation of DHFR with the rare codon cluster [9]: ≥ 25 µg/mL
- inhibition of trans-translation of the DHFR product [9]: inhibited
- trans-translation product DHFR [9]: still present
- inhibition of trans-translation, densitometry of band intensities ([9]; n=5): Concentration-dependent inhibition
- MIC [10]: 50 µg/mL
- inhibition of trans-translation [11]: nor did it inhibit; also recorded: did not inhibit

SMILES: NC(=O)c1cnccn1 [PZA, Pyrazinamide]
- inhibition of Rv0670 (Endo IV/V) activity [1]: no inhibition and not
- inhibition of Rv0670 endonuclease activity [2]: did not inhibit
- binding to wild type RpsA (ITC) [6]: did not bind
- effect on tmRNA binding to wild type RpsA [3]: no effect; also recorded: not affected
- MIC [12]: 100 µg/mL (≈ 812 µM)

SMILES: O=C(O)c1cccnc1 [nicotinic acid]
- inhibition of trans-translation [9]: did not inhibit
